According to US11149030B2, “Plants having increased tolerance to herbicides” (BASF AGRO B.V., priority 2016, dated 2021):
Several values for one entry are separate records, joined by “and”; a condition that tells them apart may be missing. Equal values may be shown once.

Assays:
[1] = system: T2 soybean events expressing the indicated Amaranthus PPO2 variant transgene; test: Soybean PPO inhibitor tolerance testing, injury score (Table C); format: in vivo, Soybean cv Jake; settings: V2 stage, 3 days after treatment, individual plants
Description: Soybean cv Jake is transformed as previously described by Siminszky et al., Phytochem Rev. 5:445-458 (2006). After regeneration, transformants are transplanted to soil in small pots, placed in growth chambers (16 hr day/8 hr night; 25° C. day/23° C. night; 65% relative humidity; 130-150 microE m-2 s-1) and subsequently tested for the presence of the T-DNA via Taqman analysis. After a few weeks, healthy, transgenic positive, single copy events are transplanted to larger pots and allowed to grow in the growth chamber. An optimal shoot for cutting is about 3-4 inches tall, with at least two nodes present. Each cutting is taken from the original transformant (mother plant) and dipped into rooting hormone powder (indole-3-butyric acid, IBA). The cutting is then placed in oasis wedges inside a bio-dome. The mother plant is taken to maturity in the greenhouse and harvested for seed. Wild type cuttings are also taken simultaneously to serve as negative controls. The cuttings are kept in the bio-dome for 5-7 days and then transplanted to 3 inch pots and then acclimated in the growth chamber for two more days. Subsequently, the cuttings are transferred to the greenhouse, acclimated for approximately 4 days prior to spray. […] g ai/ha saflufenacil plus 1% MSO and/or 25-200 g ai/ha 1,5-dimethyl-6-thioxo-3-(2,2,7-trifluoro-3-oxo-4-(prop-2-ynyl)-3,4-dihydro-2H-benzo[b][1,4]oxazin-6-yl)-1,3,5-triazinane-2,4-dione (CAS 1258836-72-4) plus 1% MSO. Other PPO inhibiting herbicides are also tested in a similar fashion for confirming cross resistance: flumioxazin, butafenacil, acifluorfen, lactofen, bifenox, sulfentrazone, methyl 2-[2-chloro-5-[3-chloro-5-(trifluoromethyl)-2-pyridyl]-4-fluoro-phenoxy]-2-methoxy-acetate, ethyl 2-[2-chloro-5-[3-chloro-5-(trifluoromethyl)-2-pyridyl]-4-fluoro-phenoxy]-2-methoxy-acetate, prop-2-ynyl 2-[2-chloro-5-[3-chloro-5-(trifluoromethyl)-2-pyridyl]-4-fluoro-phenoxy]-2-methoxy-acetate and photosynthesis inhibitor diuron as negative control. […]
The following gives a definition of the injury scores measured above: […]

[2] = system: T2 maize events expressing the indicated Amaranthus PPO2 variant transgene; test: Maize whole plant PPO inhibitor tolerance testing, injury 0-9 point scale (Table B); format: in vivo; settings: V2 stage, 3 days after treatment, individual plants
Description: Immature embryos are transformed according to the procedure outlined in Peng et al. (WO2006/136596). Plants are tested for the presence of the T-DNA by Taqman analysis with the target being the nos terminator which is present in all constructs. Healthy looking plants are sent to the greenhouse for hardening and subsequent spray testing. The plants are individually transplanted into MetroMix 360 soil in 4″ pots. Once in the greenhouse (day/night cycle of 27° C./21° C. with 14 hour day length supported by 600 W high pressure sodium lights), they are allowed to grow for 14 days. […] 200 g ai/ha saflufenacil+1.0% v/v methylated seed oil (MSO) and/or 25-200 g ai/ha 1,5-dimethyl-6-thioxo-3-(2,2,7-trifluoro-3-oxo-4-(prop-2-ynyl)-3,4-dihydro-2H-benzo[b][1,4]oxazin-6-yl)-1,3,5-triazinane-2,4-dione (CAS 1258836-72-4) plus 1% MSO. Other PPO inhibiting herbicides are also tested in a similar fashion for confirming cross resistance: flumioxazin, butafenacil, acifluorfen, lactofen, bifenox, sulfentrazone, methyl 2-[2-chloro-5-[3-chloro-5-(trifluoromethyl)-2-pyridyl]-4-fluoro-phenoxy]-2-methoxy-acetate, ethyl 2-[2-chloro-5-[3-chloro-5-(trifluoromethyl)-2-pyridyl]-4-fluoro-phenoxy]-2-methoxy-acetate, prop-2-ynyl 2-[2-chloro-5-[3-chloro-5-(trifluoromethyl)-2-pyridyl]-4-fluoro-phenoxy]-2-methoxy-acetate and photosynthesis inhibitor diuron as negative control. […] […] The top survivors are transplanted into gallon pots filled with Metro Mix 360 for seed production.

For `COC(=O)C(OC)Oc1cc(-c2ncc(C(F)(F)F)cc2Cl)c(F)cc1Cl` (centres unmarked) [methyl 2-[2-chloro-5-[3-chloro-5-(trifluoromethyl)-2-pyridyl]-4-fluoro-phenoxy]-2-methoxy-acetate], the “injury on a 0-9 point scale” value ([1]; soybean T2, transgene L397E_F420M, 25 g ai/ha + 1% v/v MSO) was 1, the “injury on a 0-9 point scale” value ([1]; soybean T2, transgene L397E_F420M, 50 g ai/ha + 1% v/v MSO) was 3 and 4 and the “injury on a 0-9 point scale” value ([1]; soybean T2, transgene L397E_F420M, 100 g ai/ha + 1% v/v MSO) was 3 and 4 and 9. The “injury on a 0-9 point scale” value ([1]; soybean T2, transgene L397E_F420M, 200 g ai/ha + 1% v/v MSO) was 3 (2×) and 4, the “injury on a 0-9 point scale” value ([1]; soybean T2, transgene L397Q_F420M, 25 g ai/ha + 1% v/v MSO) was 1 and 0 and 9 and the “injury on a 0-9 point scale” value ([1]; soybean T2, transgene L397Q_F420M, 50 g ai/ha + 1% v/v MSO) was 9 and 1. The “injury on a 0-9 point scale” value ([1]; soybean T2, transgene L397Q_F420M, 100 g ai/ha + 1% v/v MSO) was 3, the “injury on a 0-9 point scale” value ([1]; soybean T2, transgene L397Q_F420M, 200 g ai/ha + 1% v/v MSO) was 3 and 9 and 4 and the “injury on a 0-9 point scale” value ([1]; soybean T2, transgene R128A_F420I event 1, 25 g ai/ha + 1% v/v MSO) was 0. The “injury on a 0-9 point scale” value ([1]; soybean T2, transgene R128A_F420I event 1, 50 g ai/ha + 1% v/v MSO) was 1 and 2 (2×), the “injury on a 0-9 point scale” value ([1]; soybean T2, transgene R128A_F420I event 1, 100 g ai/ha + 1% v/v MSO) was 2 (2×) and 3 and the “injury on a 0-9 point scale” value ([1]; soybean T2, transgene R128A_F420I event 1, 200 g ai/ha + 1% v/v MSO) was 4 (2×) and 3. For the same compound, the “injury on a 0-9 point scale” value ([1]; soybean T2, transgene R128A_F420I event 2, 25 g ai/ha + 1% v/v MSO) was 0 and 9, the “injury on a 0-9 point scale” value ([1]; soybean T2, transgene R128A_F420I event 2, 50 g ai/ha + 1% v/v MSO) was 3 (2×) and 4 and the “injury on a 0-9 point scale” value ([1]; soybean T2, transgene R128A_F420I event 2, 100 g ai/ha + 1% v/v MSO) was 1 and 3. The “injury on a 0-9 point scale” value ([1]; soybean T2, transgene R128A_F420I event 2, 200 g ai/ha + 1% v/v MSO) was 5 (2×) and 4, the “injury on a 0-9 point scale” value ([1]; soybean T2, transgene R128A_F420I event 3, 25 g ai/ha + 1% v/v MSO) was 0 and the “injury on a 0-9 point scale” value ([1]; soybean T2, transgene R128A_F420I event 3, 50 g ai/ha + 1% v/v MSO) was 1 and 2 and 0. For the same compound, the “injury on a 0-9 point scale” value ([1]; soybean T2, transgene R128A_F420I event 3, 100 g ai/ha + 1% v/v MSO) was 1 and 3, the “injury on a 0-9 point scale” value ([1]; soybean T2, transgene R128A_F420I event 3, 200 g ai/ha + 1% v/v MSO) was 4 and the “injury on a 0-9 point scale” value ([1]; soybean T2, transgene R128A_F420V, 25 g ai/ha + 1% v/v MSO) was 2 and 1. For the same compound, the “injury on a 0-9 point scale” value ([1]; soybean T2, transgene R128A_F420V, 50 g ai/ha + 1% v/v MSO) was 4 and 9, the “injury on a 0-9 point scale” value ([1]; soybean T2, transgene R128A_F420V, 100 g ai/ha + 1% v/v MSO) was 4 and the “injury on a 0-9 point scale” value ([1]; soybean T2, transgene R128A_F420V, 200 g ai/ha + 1% v/v MSO) was 9 and 4 and 5. The “injury on a 0-9 point scale” value ([1]; soybean, Non transgenic, 25 g ai/ha + 1% v/v MSO) was 9 (2×) and 8, the “injury on a 0-9 point scale” value ([1]; soybean, Non transgenic, 50 g ai/ha + 1% v/v MSO) was 9 and the “injury on a 0-9 point scale” value ([1]; soybean, Non transgenic, 100 g ai/ha + 1% v/v MSO) was 9. The “injury on a 0-9 point scale” value ([1]; soybean, Non transgenic, 200 g ai/ha + 1% v/v MSO) was 9 (2×) and 8, the “injury on a 0-9 point scale” value ([2]; maize T2, transgene L397D_F420M, 25 g ai/ha + 1% v/v MSO) was 0 (2×) and 3 and 1 and the “injury on a 0-9 point scale” value ([2]; maize T2, transgene L397D_F420M, 50 g ai/ha + 1% v/v MSO) was 0 (2×) and 1 (2×). For the same compound, the “injury on a 0-9 point scale” value ([2]; maize T2, transgene L397D_F420M, 100 g ai/ha + 1% v/v MSO) was 0 (3×) and 1, the “injury on a 0-9 point scale” value ([2]; maize T2, transgene L397D_F420M, 200 g ai/ha + 1% v/v MSO) was 0 (2×) and 2 and 1 and the “injury on a 0-9 point scale” value ([2]; maize T2, transgene L397E_F420M, 25 g ai/ha + 1% v/v MSO) was 9 (2×) and 2 and 0. For the same compound, the “injury on a 0-9 point scale” value ([2]; maize T2, transgene L397E_F420M, 50 g ai/ha + 1% v/v MSO) was 0 and 9 (2×) and 1, the “injury on a 0-9 point scale” value ([2]; maize T2, transgene L397E_F420M, 100 g ai/ha + 1% v/v MSO) was 4 and 1 and 0 and the “injury on a 0-9 point scale” value ([2]; maize T2, transgene L397E_F420M, 200 g ai/ha + 1% v/v MSO) was 0 and 6 (2×) and 5. The “injury on a 0-9 point scale” value ([2]; maize T2, transgene R128A_F420I, 25 g ai/ha + 1% v/v MSO) was 0 (2×) and 1 (2×), the “injury on a 0-9 point scale” value ([2]; maize T2, transgene R128A_F420I, 50 g ai/ha + 1% v/v MSO) was 2 and 1 (2×) and 0 and the “injury on a 0-9 point scale” value ([2]; maize T2, transgene R128A_F420I, 100 g ai/ha + 1% v/v MSO) was 0 (2×) and 1 (2×). For the same compound, the “injury on a 0-9 point scale” value ([2]; maize T2, transgene R128A_F420I, 200 g ai/ha + 1% v/v MSO) was 1 (3×) and 0, the “injury on a 0-9 point scale” value ([2]; maize, Non transgenic, 25 g ai/ha + 1% v/v MSO) was 8 and 9 (3×) and the “injury on a 0-9 point scale” value ([2]; maize, Non transgenic, 50 g ai/ha + 1% v/v MSO) was 9. The “injury on a 0-9 point scale” value ([2]; maize, Non transgenic, 100 g ai/ha + 1% v/v MSO) was 9 and the “injury on a 0-9 point scale” value ([2]; maize, Non transgenic, 200 g ai/ha + 1% v/v MSO) was 9.
